Measurements reported in ChEMBL document CHEMBL2086335, “Three new 12-carbamoylated streptothricins from Streptomyces sp. I08A 1776” (2012).
In brackets after ≈: the same amount, converted by molar mass.

What was measured:
Assay type in all cases: functional
[1] = tested on: Mycobacterium tuberculosis; test: Antibacterial activity against drug-resistant Mycobacterium tuberculosis 164 by microbroth dilution method
[2] = tested on: Mycobacterium tuberculosis; test: Antibacterial activity against drug-resistant Mycobacterium tuberculosis 926 by microbroth dilution method
[3] = tested on: Mycobacterium tuberculosis; test: Ratio of rifampicin MIC to compound MIC for extensively drug-resistant Mycobacterium tuberculosis
[4] = tested on: Mycobacterium tuberculosis; test: Ratio of isoniazid MIC to compound MIC for extensively drug-resistant Mycobacterium tuberculosis

SMILES | MIC [1] | MIC [2] | Ratio [3] | Ratio [4]
NCCC[C@H](N)CC(=O)NCCC[C@H](N)CC(=O)N[C@@H]1[C@H](O)[C@@H](O)[C@@H](COC(N)=O)O[C@H]1/N=C1\N[C@@H]2[C@H](O)CNC(=O)[C@H]2N1 | 8 µg/mL (≈ 12.7 µM) | 8 µg/mL (≈ 12.7 µM) |  | 
NNC(=O)c1ccncc1 [ISONIAZID] | 4 µg/mL (≈ 29.2 µM) | 4 µg/mL (≈ 29.2 µM) |  | 
CO[C@H]1/C=C/O[C@@]2(C)Oc3c(C)c(O)c4c(O)c(c(/C=N/N5CCN(C)CC5)c(O)c4c3C2=O)NC(=O)/C(C)=C\C=C\[C@H](C)[C@H](O)[C@@H](C)[C@@H](O)[C@@H](C)[C@H](OC(C)=O)[C@@H]1C [RIFAMPIN] | 32 µg/mL (≈ 38.9 µM) | 16 µg/mL (≈ 19.4 µM) |  | 
NCCC[C@H](N)CC(=O)NCCC[C@H](N)CC(=O)N[C@@H]1[C@H](O)[C@@H](OC(N)=O)[C@@H](CO)O[C@H]1NC1=N[C@@H]2C(=O)NC[C@@H](O)[C@H]2N1 [STREPTOTHRICIN E] | 0.5 µg/mL (≈ 0.793 µM) | 0.25 µg/mL (≈ 0.396 µM) | 8 | 8
